Source: patent US10004701B2, “Methods and compositions for treating infection” (UNIVERSITY OF ROCHESTER, priority 2012, dated 2018)
Counter-ions that a name gives are not always drawn. Like-named read-outs stand apart in the source and are kept apart here.

Columns and labels:
Assay in all cases: AK assay 384-well format, Prestwick library screening
[1] = test system: K. pneumoniae; format: cell-based, Klebsiella pneumoniae; settings: for fold induction at 50 µM: Klebsiella pneumoniae, 3 h
[2] = test system: E. cloacae; format: cell-based, Enterobacter cloacae; settings: for fold induction at 50 µM: Enterobacter cloacae, 3 h
[3] = test system: S. aureus strain USA300-0114; format: cell-based, Staphylococcus aureus; settings: for fold induction at 50 µM: Staphylococcus aureus, USA300, 3 h
[4] = test system: E. coli; format: cell-based, Escherichia coli; settings: for fold induction at 50 µM: Escherichia coli, 3 h
[5] = test system: A. baumannii strain 98-37-09; format: cell-based, Acinetobacter baumannii; settings: for fold induction at 50 µM: Acinetobacter baumannii, 983709, 3 h
[6] = test system: E. faecium; format: cell-based, Enterococcus faecium; settings: for fold induction at 50 µM: Enterococcus faecium, 3 h
[7] = test system: P. aeruginosa; format: cell-based, Pseudomonas aeruginosa; settings: for fold induction at 50 µM: Pseudomonas aeruginosa, 3 h
[8] = 50 μM final drug concentration, cutoff for positive-scoring molecules 3-fold increase, read-out: AK-based Prestwick Library Screening Results, K. pneumoniae (fold increase in extracellular AK activity)
[9] = 50 μM final drug concentration, cutoff for positive-scoring molecules 3-fold increase, read-out: AK-based Prestwick Library Screening Results, E. cloacae (fold increase in extracellular AK activity)
[10] = 50 μM final drug concentration, cutoff for positive-scoring molecules 3-fold increase, read-out: AK-based Prestwick Library Screening Results, S. aureus (fold increase in extracellular AK activity)
[11] = 50 μM final drug concentration, cutoff for positive-scoring molecules 3-fold increase, read-out: AK-based Prestwick Library Screening Results, E. coli (fold increase in extracellular AK activity)
[12] = 50 μM final drug concentration, cutoff for positive-scoring molecules 3-fold increase, read-out: AK-based Prestwick Library Screening Results, A. baumannii (fold increase in extracellular AK activity)
[13] = 50 μM final drug concentration, cutoff for positive-scoring molecules 3-fold increase, read-out: AK-based Prestwick Library Screening Results, E. faecium (fold increase in extracellular AK activity)
[14] = 50 μM final drug concentration, cutoff for positive-scoring molecules 3-fold increase, read-out: AK-based Prestwick Library Screening Results, P. aeruginosa (fold increase in extracellular AK activity)
[15] = 50 μM final drug concentration, planktonic, cutoff for positive-scoring molecules 3-fold increase, read-out: AK-based Prestwick Library Screening Results, K. pneumoniae (fold increase in extracellular AK activity)
[16] = 50 μM final drug concentration, planktonic, cutoff for positive-scoring molecules 3-fold increase, read-out: AK-based Prestwick Library Screening Results, E. cloacae (fold increase in extracellular AK activity)
[17] = 50 μM final drug concentration, planktonic, cutoff for positive-scoring molecules 3-fold increase, read-out: AK-based Prestwick Library Screening Results, S. aureus (fold increase in extracellular AK activity)
[18] = 50 μM final drug concentration, planktonic, cutoff for positive-scoring molecules 3-fold increase, read-out: AK-based Prestwick Library Screening Results, E. coli (fold increase in extracellular AK activity)
[19] = 50 μM final drug concentration, planktonic, cutoff for positive-scoring molecules 3-fold increase, read-out: AK-based Prestwick Library Screening Results, A. baumannii (fold increase in extracellular AK activity)
[20] = 50 μM final drug concentration, planktonic, cutoff for positive-scoring molecules 3-fold increase, read-out: AK-based Prestwick Library Screening Results, E. faecium (fold increase in extracellular AK activity)
[21] = 50 μM final drug concentration, planktonic, cutoff for positive-scoring molecules 3-fold increase, read-out: AK-based Prestwick Library Screening Results, P. aeruginosa (fold increase in extracellular AK activity)

With `CC(C)NCC(O)c1ccc(O)c(O)c1.Cl` (single isomer, unassigned; (-)) [(−)-Isoproterenol hydrochloride] the “AK-based Prestwick library screening result, K. pneumoniae (fold increase in extracellular AK activity)” value ([1]; planktonic K. pneumoniae, 50 μM final drug concentration, positive cutoff 3-fold increase) was 1.2, the “AK-based Prestwick library screening result, E. cloacae (fold increase in extracellular AK activity)” value ([2]; planktonic E. cloacae, 50 μM final drug concentration, positive cutoff 3-fold increase) was 2.3 and the “AK-based Prestwick library screening result, S. aureus (fold increase in extracellular AK activity)” value ([3]; planktonic S. aureus, 50 μM final drug concentration, positive cutoff 3-fold increase) was 0.9. For the same compound, the “AK-based Prestwick library screening result, E. coli (fold increase in extracellular AK activity)” value ([4]; planktonic E. coli, 50 μM final drug concentration, positive cutoff 3-fold increase) was 1.2, the “AK-based Prestwick library screening result, A. baumannii (fold increase in extracellular AK activity)” value ([5]; planktonic A. baumannii, 50 μM final drug concentration, positive cutoff 3-fold increase) was 0.9 and the “AK-based Prestwick library screening result, E. faecium (fold increase in extracellular AK activity)” value ([6]; planktonic E. faecium, 50 μM final drug concentration, positive cutoff 3-fold increase) was 0.9. For the same compound, the “AK-based Prestwick library screening result, P. aeruginosa (fold increase in extracellular AK activity)” value ([7]; planktonic P. aeruginosa, 50 μM final drug concentration, positive cutoff 3-fold increase) was 1.1.

Work on `COC(=O)Nc1nc2ccc(C(=O)c3cccs3)cc2[nH]1` [Nocodazole] yielded a fold induction at 50 µM ([1]; 50 μM final drug concentration, 384-well format, cutoff for positive-scoring molecules 3-fold increase, read-out: AK-based Prestwick Library Screening Results, K. pneumoniae (increase in extracellular AK activity)) of 0.5, a fold induction at 50 µM ([2]; 50 μM final drug concentration, 384-well format, cutoff for positive-scoring molecules 3-fold increase, read-out: AK-based Prestwick Library Screening Results, E. cloacae (increase in extracellular AK activity)) of 0.7 and a fold induction at 50 µM ([3]; 50 μM final drug concentration, 384-well format, cutoff for positive-scoring molecules 3-fold increase, read-out: AK-based Prestwick Library Screening Results, S. aureus (increase in extracellular AK activity)) of 0.6. The fold induction at 50 µM ([4]; 50 μM final drug concentration, 384-well format, cutoff for positive-scoring molecules 3-fold increase, read-out: AK-based Prestwick Library Screening Results, E. coli (increase in extracellular AK activity)) was 0.6, the fold induction at 50 µM ([5]; 50 μM final drug concentration, 384-well format, cutoff for positive-scoring molecules 3-fold increase, read-out: AK-based Prestwick Library Screening Results, A. baumannii (increase in extracellular AK activity)) was 0.6 and the fold induction at 50 µM ([6]; 50 μM final drug concentration, 384-well format, cutoff for positive-scoring molecules 3-fold increase, read-out: AK-based Prestwick Library Screening Results, E. faecium (increase in extracellular AK activity)) was 0.9. For the same compound, the fold induction at 50 µM ([7]; 50 μM final drug concentration, 384-well format, cutoff for positive-scoring molecules 3-fold increase, read-out: AK-based Prestwick Library Screening Results, P. aeruginosa (increase in extracellular AK activity)) was 0.6.

For `CCC1NC(=O)c2cc(S(N)(=O)=O)c(Cl)cc2N1` (stereo not drawn) [Quinethazone], the fold induction at 50 µM [1, 8] was 0.6, the fold induction at 50 µM [2, 9] was 0.4 and the fold induction at 50 µM [3, 10] was 0.4. The fold induction at 50 µM [4, 11] was 0.6, the fold induction at 50 µM [5, 12] was 0.5 and the fold induction at 50 µM [6, 13] was 0.9. For the same compound, the fold induction at 50 µM [7, 14] was 0.5.

`O=C(O)c1cccnc1` [Niacin] was tested, and the fold induction at 50 µM [1, 15] was 0.5, the fold induction at 50 µM [2, 16] was 0.7 and the fold induction at 50 µM [3, 17] was 0.6. It also gave a fold induction at 50 µM [4, 18] of 0.7, a fold induction at 50 µM [5, 19] of 0.6 and a fold induction at 50 µM [6, 20] of 0.9. It also gave a fold induction at 50 µM [7, 21] of 0.6.

With `CC(=O)OCC1=C(C(=O)O)N2C(=O)[C@@H](NC(=O)Cc3cccs3)[C@H]2SC1` [Cephalothin sodium salt] the fold induction at 50 µM [1, 8] was 3.2, the fold induction at 50 µM [2, 9] was 2 and the fold induction at 50 µM [3, 10] was 5.3. It also gave a fold induction at 50 µM [4, 11] of 11.8, a fold induction at 50 µM [5, 12] of 1.1 and a fold induction at 50 µM [6, 13] of 1. For the same compound, the fold induction at 50 µM [7, 14] was 1.1.

Compound `CC(C)(C)NC(=O)[C@@H]1C[C@@H]2CCCC[C@@H]2CN1C[C@@H](O)[C@H](Cc1ccccc1)NC(=O)[C@H](CC(N)=O)NC(=O)c1ccc2ccccc2n1` [Saquinavir mesylate] has a fold induction at 50 µM ([1]; planktonic K. pneumoniae, 50 μM final drug concentration, […], read-out: AK-based Prestwick library screening result, K. pneumoniae (fold increase in extracellular AK activity)) of 1.1, a fold induction at 50 µM ([2]; planktonic E. cloacae, 50 μM final drug concentration, […], read-out: AK-based Prestwick library screening result, E. cloacae (fold increase in extracellular AK activity)) of 1.8 and a fold induction at 50 µM ([3]; planktonic S. aureus, 50 μM final drug concentration, […], read-out: AK-based Prestwick library screening result, S. aureus (fold increase in extracellular AK activity)) of 0.9. The fold induction at 50 µM ([4]; planktonic E. coli, 50 μM final drug concentration, […], read-out: AK-based Prestwick library screening result, E. coli (fold increase in extracellular AK activity)) was 1.3, the fold induction at 50 µM ([5]; planktonic A. baumannii, 50 μM final drug concentration, […], read-out: AK-based Prestwick library screening result, A. baumannii (fold increase in extracellular AK activity)) was 1.5 and the fold induction at 50 µM ([6]; planktonic E. faecium, 50 μM final drug concentration, […], read-out: AK-based Prestwick library screening result, E. faecium (fold increase in extracellular AK activity)) was 1.2. For the same compound, the fold induction at 50 µM ([7]; planktonic P. aeruginosa, 50 μM final drug concentration, […], read-out: AK-based Prestwick library screening result, P. aeruginosa (fold increase in extracellular AK activity)) was 1.

With `COc1ccccc1N1CCN(CCCNc2cc(=O)n(C)c(=O)n2C)CC1` [Urapidil hydrochloride] the fold induction at 50 µM [1, 15] was 0.7, the fold induction at 50 µM [2, 16] was 1.1 and the fold induction at 50 µM [3, 17] was 0.9. The fold induction at 50 µM [4, 18] was 1, the fold induction at 50 µM [5, 19] was 1 and the fold induction at 50 µM [6, 20] was 0.9. It also gave a fold induction at 50 µM [7, 21] of 1.

With `NC12CC3CC(CC(C3)C1)C2.NC12CC3CC(CC(C3)C1)C2.O=C(O)/C=C/C(=O)O` [Adamantamine fumarate] the “AK-based Prestwick Library Screening Results: K. pneumoniae (increase in extracellular AK activity)” value ([1]; planktonic K. pneumoniae, 50 μM final drug concentration, 384-well, cutoff for positive-scoring molecules 3-fold increase) was 0.5, the “AK-based Prestwick Library Screening Results: E. cloacae (increase in extracellular AK activity)” value ([2]; planktonic E. cloacae, 50 μM final drug concentration, 384-well, cutoff for positive-scoring molecules 3-fold increase) was 0.4 and the “AK-based Prestwick Library Screening Results: S. aureus (increase in extracellular AK activity)” value ([3]; planktonic S. aureus, 50 μM final drug concentration, 384-well, cutoff for positive-scoring molecules 3-fold increase) was 0.4. For the same compound, the “AK-based Prestwick Library Screening Results: E. coli (increase in extracellular AK activity)” value ([4]; planktonic E. coli, 50 μM final drug concentration, 384-well, cutoff for positive-scoring molecules 3-fold increase) was 0.5, the “AK-based Prestwick Library Screening Results: A. baumannii (increase in extracellular AK activity)” value ([5]; planktonic A. baumannii, 50 μM final drug concentration, 384-well, cutoff for positive-scoring molecules 3-fold increase) was 0.5 and the “AK-based Prestwick Library Screening Results: E. faecium (increase in extracellular AK activity)” value ([6]; planktonic E. faecium, 50 μM final drug concentration, 384-well, cutoff for positive-scoring molecules 3-fold increase) was 0.9. The “AK-based Prestwick Library Screening Results: P. aeruginosa (increase in extracellular AK activity)” value ([7]; planktonic P. aeruginosa, 50 μM final drug concentration, 384-well, cutoff for positive-scoring molecules 3-fold increase) was 0.4.

With `CCC(C)(C)C(=O)O[C@H]1C[C@@H](C)C=C2C=C[C@H](C)[C@H](CC[C@@H]3C[C@@H](O)CC(=O)O3)[C@H]21` [Simvastatin] the fold induction at 50 µM ([1]; read-out: AK-based Prestwick Library Screening Results, K. pneumoniae (fold increase in extracellular AK activity)) was 1.2, the fold induction at 50 µM ([2]; read-out: AK-based Prestwick Library Screening Results, E. cloacae (fold increase in extracellular AK activity)) was 1.5 and the fold induction at 50 µM ([3]; read-out: AK-based Prestwick Library Screening Results, S. aureus (fold increase in extracellular AK activity)) was 0.4. It also gave a fold induction at 50 µM ([4]; read-out: AK-based Prestwick Library Screening Results, E. coli (fold increase in extracellular AK activity)) of 1.6, a fold induction at 50 µM ([5]; read-out: AK-based Prestwick Library Screening Results, A. baumannii (fold increase in extracellular AK activity)) of 2.5 and a fold induction at 50 µM ([6]; read-out: AK-based Prestwick Library Screening Results, E. faecium (fold increase in extracellular AK activity)) of 1. The fold induction at 50 µM ([7]; read-out: AK-based Prestwick Library Screening Results, P. aeruginosa (fold increase in extracellular AK activity)) was 1.1.
